What was measured:
[1] = biological target: T1, human MCP-1 receptor (Homo sapiens, UniProt P41597); test: Determination of inhibitory activity on MCP-1 receptor (125I-MCP-1 binding to CHO cells expressing human MCP-1 receptor); settings: Test Compound 1 μM, 125I-human recombinant MCP-1 100 pM, room temperature 40 minutes
T1 construct: expressed in transfected cells; host or cells: CHO cells, transformant CHO(MCR); FERM BP-5446; IFO 50461
Description: According to a method described in Working Example 1 of JP-A-238688/1997, human MCP-1 receptor gene was prepared. Said gene was inserted to plasmid pMCR, which was introduced into CHO cell. The resultant transformant [CHO(MCR); FERM BP-5446; IFO 50461] was used for the following experiment.
On 96 well culture plate (Packard Instrument Company), 7×10^4 cell/well of CHO cells expressing human MCP-1 receptor were inoculated, and the cells were cultivated at 37° C., overnight. The medium was removed by means of suction. To the residue were added a buffer solution (D-MEM containing 0.5% BSA and 20 mM HEPES; pH7.4), Test Compound (1 μM) and ^125I-human recombinant MCP-1 (Amersham; final concentration: 100 pM), and the mixture was allowed to react at room temperature for 40 minutes. The buffer solution was removed by means of suction and washed twice with PBS. To the residue was added MICROSCINT-20 (Packard Instrument Company), radioactivity of ^125I (cpm) was determined with Topcount (Packard).
The count number (cpm) (non-specific binding) of ^125I which binds to CHO cells (mock) having a vector was taken from the count number (cpm) of ^125I which binds to CHO cells expressing human MCP-1 receptor to obtain the amended count number, which was converted into 100%, and inhibition rate of Test Compound (whose number is referred to in the following Examples) against MCP-1 binding to its receptor was calculated.

[2] = tested on: HIV-1 BA-L; test: Inhibitory effect on HIV-1 infection to MAGI-CCR5 cell; type: cell-based; settings: 100 μl medium containing 1.6 μM of Test Compound plus 100 μl medium with 300PFU HIV-1 BA-L, 2 days
Description: The plasmid where β-galactosidase gene was ligated downstream of HIV-1 LTR was introduced into CD4 positive HeLa cell, to which human CCR5 was further introduced to obtain transformant MAGI-CCR5. By using said transformant MAGI-CCR5, degree of HIV-1 infection was calculated from β-galactosidase activity (blue color due to decomposition of 5-bromo-4-chloro-3-indolyl-β-D-galactopyranoside). Specifically, MAGI-CCR5 cells were suspended in DMEM medium containing 10% serum to prepare 5×10^4 cells/ml suspension. To each well of 96 well plate was inoculated 200 μl of the suspension, and the cells were cultivated at 37° C. overnight. The medium was removed by means of suction, and to the residue was added 100 μl of the above medium containing 1.6 μM of Test Compound 96 or 0.064 μM of Test Compound 248 and 100 μl of the above medium containing 300PFU of HIV-1 BA-L cells. The cells were cultivated at 37° C. for 2 days. The medium was removed by means of suction. To the residue was added 200 μl of cell fixative (PBS containing 1% formaldehyde and 0.2% glutaraldehyde), and the mixture was allowed to stand at room temperature for 5 minutes and washed twice with PBS. […] The number of blue cells was counted by microscope and defined as the number of cells infected with HIV-1.

[3] = tested on: HIV-1 BA-L; test: Inhibitory effect on HIV-1 infection to human PBMC; type: cell-based; settings: human PBMC stimulated with PHA and IL-2; same amount of a solution containing 2.0 μM of Test Compound added; 7 days
Description: From normal person human peripheral blood mononuclear cells (PBMC) were separated, and the cells were stimulated with 10 μg/ml of PHA (Phytohemaglutinin) and 20 U/ml of interleukin-2 (IL-2) for 3 days. The cells were suspended in RPMI-1640 medium containing 20% serum to prepare 1×10^6/ml suspension. To the suspension were infected HIV-1 BA-L cells (20 ng as an amount of p24 antigen), and viruses were absorbed at 37° C. for 2 hours. The cells were washed and suspended in RPMI-1640 medium containing 20% serum and IL-2 20 U/ml to prepare 1×10^5/ml suspension. To the PBMC suspension was added the same amount of a solution which contains 2.0 μM of Test Compound 96 or 0.32 μM of Test Compound 248, and the cells were cultivated at 37° C. for 7 days in carbon dioxide gas incubator. The amount of p24 antigen in supernatant of the cultivated medium was determined by enzyme-linked immunosorbent assay (ELISA) and defined as degree of HIV-1 infection.

[4] = biological target: T2, human CCR5 (Homo sapiens, UniProt P51681); test: CCR5 antagonistic activity ([125I]-RANTES binding to CHO/CCR5 cells); settings: Test Compound 1 μM, 100 pM [125I]-RANTES, room temperature 30 minutes
T2 construct: expressed in transfected cells; host or cells: CHO-K1 cells, geneticin-resistant clone CHO/CCR5
Description: Cloning of CCR5 gene was carried out by PCR (polymerase chain reaction) from human spleen cDNA. With using 0.5 ng of spleen cDNA (Toyobo, QUICK-Clone cDNA) as template, PCR was performed in DNA Thermal Cycler 480 (Perkin-Elmer) (reaction conditions: 30 cycles of 95° C. for 1 minute, 60° C. for 1 minute, and 75° C. for 5 minutes) by adding primer set, 5′-CAGGATCCGATG […]-3′ (25 pmol) and 5′-TCTAGATCACAAGCC CACAGATATTTCCTGCTCC-3′ (25 pmol), which were designed referring to nucleotide sequence of CCR5 gene reported by Samson et al. (Biochemistry, 35(11), 3362-3367 (1996)) and by using TaKaRa EX Taq (Takara Shuzo). The resultant PCR product was subjected to agarose gel electrophoresis to collect about 1.0 kb DNA fragment, which was subjected to Original TA Cloning Kit (Funakoshi) to carry out cloning of CCR5 gene.
The plasmid obtained in the above (1) was digested with restriction enzymes XbaI (Takara Shuzo) and BamHI (Takara Shuzo) and subjected to agarose gel electrophoresis to collect about 1.0 kb DNA fragment. The DNA fragment was mixed with plasmid pcDNA3.1 (Funakoshi) for expression in animal cells, said plasmid being digested with XbaI and BamHI, and they were ligated with DNA Ligation Kit Ver.2 (Takara Shuzo). The resulting plasmid was subjected to transformation of competent cell of E. coli JM109 (Takara Shuzo) to obtain plasmid pCKR5.
CHO-K1 cells were grown in 750 ml of tissue culture flask (Becton Dickinson) using Ham's F12 medium (Nihon Pharmaceutical) containing 10% fetal calf serum (Life Tech Oriental) and took off with 0.5 g/L trypsin-0.2 g/L EDTA (Life Tech Oriental). The cells were washed with PBS (Life Tech Oriental), centrifuged (1000 rpm, 5 minutes), and suspended in PBS. With using Gene Pulser (Bio-Rad Laboratories), DNA was introduced into the cells under the conditions shown below. That is, to the cuvette of 0.4 cm gap were added 8×10^6 cells and 10 μg of plasmid pCKR5 for expression of human CCR5, and electroporation was carried out under 0.25 kV of voltage and 960 μF of capacitance. The cells were transferred into Ham's F12 medium (Nihon Pharmaceutical) containing 10% fetal calf serum, and cultivated for 24 hours. The cells were again took off and centrifuged, and suspended in Ham's F12 medium (Nihon Pharmaceutical) containing 10% fetal calf serum and 500 μg/ml of geneticin (Life Tech Oriental). The suspension was diluted to give 1 cells/ml of the suspension, which was inoculated on 96 well plate (Becton Dickinson) to give geneticin resistant cells. The resulting geneticin resistant cells were cultivated in 96 well plate (Becton Dickinson), and cells expressing CCR5 were selected from the geneticin resistant cells. That is, in assay buffer (Ham's F12 medium containing 0.5% BSA and 20 mM HEPES (Wako Pure Chemical, pH7.2) to which was added 200 pM of [^125I]-RANTES (Amersham) as ligand, binding reaction was carried out at room temperature for 40 minutes, and the buffer was washed with cooled PBS. To the buffer was added 50 μl/well of 1M NaOH, and the mixture was stirred. Radioactivity was determined with γ-counter to select CHO/CCR5 cells which specifically bind to the ligand.
The CHO/CCR5 were inoculated on 96 well microplate (5×10^4 cells/well) and cultivated for 24 hours. […] Radio-activity was determined with Top-Count Micro Scintillation Counter (Packard Instrument, Inc.). […]

T1 sequence (P41597 whole entry): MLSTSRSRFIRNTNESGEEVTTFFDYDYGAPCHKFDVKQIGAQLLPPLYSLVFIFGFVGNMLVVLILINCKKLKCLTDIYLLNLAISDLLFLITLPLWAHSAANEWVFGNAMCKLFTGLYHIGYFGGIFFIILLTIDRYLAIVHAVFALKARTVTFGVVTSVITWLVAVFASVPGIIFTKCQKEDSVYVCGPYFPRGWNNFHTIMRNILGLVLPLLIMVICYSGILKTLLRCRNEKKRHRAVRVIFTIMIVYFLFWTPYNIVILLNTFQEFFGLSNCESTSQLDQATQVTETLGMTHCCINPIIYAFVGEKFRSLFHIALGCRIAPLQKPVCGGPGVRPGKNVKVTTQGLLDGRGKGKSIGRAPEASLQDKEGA
T2 sequence (P51681 whole entry): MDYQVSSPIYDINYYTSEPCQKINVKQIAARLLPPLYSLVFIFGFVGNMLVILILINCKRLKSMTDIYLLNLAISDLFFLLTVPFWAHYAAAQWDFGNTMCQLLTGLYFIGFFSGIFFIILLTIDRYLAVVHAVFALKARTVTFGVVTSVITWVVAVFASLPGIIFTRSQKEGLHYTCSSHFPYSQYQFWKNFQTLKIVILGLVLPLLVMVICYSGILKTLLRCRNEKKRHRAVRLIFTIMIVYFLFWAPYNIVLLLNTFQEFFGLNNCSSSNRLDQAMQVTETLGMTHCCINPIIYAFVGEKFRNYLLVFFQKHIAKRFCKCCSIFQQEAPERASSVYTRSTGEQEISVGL

| Inhibition Rate (%) against MCP-1 binding to its receptor [1] [%] | Compound | also measured |
| --- | --- | --- |
| 92 | Cc1ccc(-c2ccc3c(c2)C=C(C(=O)Nc2ccc(C[N+]4(C)CCCCC4)cc2)CCS3)cc1 [Compound 94, 1—(N-(7—(4-methylphenyl)-2,3-dihydro-1-benzo-thiepine-4-carbonyl)-4-aminobenzyl)-1-methyl-piperidinium iodide] |  |
| 80 | Cc1ccc(-c2ccc3c(c2)C=C(C(=O)Nc2ccc(CN(C)C4CCOCC4)cc2)CCO3)cc1 [Compound 128, N-(4—(N-methyl-(N-tetrahydropyran-4-yl)aminomethyl)phenyl)-7—(4-methylphenyl)-2,3-dihydro-1-benzoxepine-4-carboxamide] | melting point: 162 to 163 °C |
| 80 | CN(Cc1ccc(NC(=O)C2=Cc3cc(-c4ccc(N5CCCCC5)cc4)ccc3OCC2)cc1)C1CCOCC1 [Compound 151] |  |
| 64 | CCc1ccc(-c2ccc3c(c2)C=C(C(=O)Nc2ccc(CP4(=O)CCCCC4)cc2)CCO3)cc1 [Compound 178, N-(4—(pentamethylene)-phosphorylmethylphenyl)-7—(4-ethylphenyl)-2,3-dihydro-1-benzoxepine-4-carboxamide] |  |

Continued, compound first:

| Compound | Inhibition Rate (%) against MCP-1 binding to its receptor [1] [%] | also measured |
| --- | --- | --- |
| Cc1ccc(-c2cccc(/C=C/C(=O)Nc3ccc(C[N+]4(C)CCCCC4)cc3)c2)cc1 [Compound 72, (E)-1-methyl-1-[4—(3—(4-methylphenyl)cinnamamido)benzyl]-piperidinium iodide] | 77 |  |
| Cc1ccc(-c2ccc3c(c2)C=C(C(=O)Nc2ccc(C[N+]4(C)CCCCC4)cc2)CCO3)cc1 [Compound 96, 1—(N-(7—(4-methylphenyl)-2,3-dihydro-1-benzoxepin-4-carbonyl)-4-aminobenzyl)-1-methylpiperidinium iodide] |  | inhibition on HIV-1 infection (number of blue cells) [2]: 92%; inhibition on HIV-1 infection (p24 antigen in supernatant, ELISA) [3]: 96% |
| Cc1ccc(-c2ccc3c(c2)C=C(C(=O)Nc2ccc(C[N+]4(C)CCCCC4)cc2)CCO3)cc1 [Compound 97, 1—(N-(7—(4-methylphenyl)-2,3-dihydro-1-benzoxepin-4-carbonyl)-4-aminobenzyl)-1-methylpiperidinium chloride] | 96 |  |
| CC(C)(C)c1ccc(-c2ccc3c(c2)C=C(C(=O)Nc2ccc(CP4(=O)CCCCC4)cc2)CCO3)cc1 [Compound 180, N-(4—(pentamethylene)phosphorylmethylphenyl)-7—(4-tert-butylphenyl)-2,3-dihydro-1-benzoxepine-4-carboxamide] |  | Inhibition Rate (%) to CCR5 binding [4]: 99% |
| Cc1ccc(-c2ccc(/C=C/C(=O)Nc3ccc(CP4(=O)CCCCC4)cc3)s2)cc1 [Compound 209, (E)-N-(4-pentamethylenephosphorylmethylphenyl)-3-[5—(4-methylphenyl)thiophen-2-yl]acrylic amide] |  | Inhibition Rate (%) to CCR5 binding [4]: 80% |
| Cc1ccc(-c2ccc3c(c2)C=C(C(=O)Nc2ccc(C[N+](C)(C)C4CCOCC4)cc2)CCC3)cc1 [Compound 220, N,N-dimethyl-N-(4—((2—(4-methylphenyl)-6,7-dihydro-5H-benzocyclohepten-8-yl)carbonyl)aminobenzyl)-N-(4-tetrahydropyranyl)ammonium iodide] | 98 |  |
| CCOc1ccc(-c2ccc3c(c2)C=C(C(=O)Nc2ccc(C[N+](C)(C)C4CCOCC4)cc2)CCO3)cc1 [Compound 250, N-(4-(((7-(4-ethoxyphenyl)-2,3-dihydro-1-benzoxepin-4-yl)carbonyl)amino)benzyl)-N,N-dimethyl-N-(4-tetrahydropyranyl)ammonium chloride] |  | inhibition at 1 µM ([4]; read-out: Inhibition Rate (%) to CCR5 binding): 96% |
| N-((7—(4-methylphenyl)-2,3-dihydro-1-benzoxepin-4-carbonyl)-2—(4-aminophenyl)ethyl)-N-methylpiperidinium iodide [Compound 100] |  | Inhibition Rate (%) to CCR5 binding [4]: 100% |
